Measured values published in PMC10034409 (Frontiers in Pharmacology, 2023).
Entries after “also recorded” stand apart in the source; their conditions may differ.

What was measured:
[1] = biological target: T1, AChE (Homo sapiens, UniProt P22303); test: biochemical; format: biochemical; settings: for IC50 / AChE IC50: mean ± SEM of 3 experiments; for Ki: mean ± SEM, mean of four values from Lineweaver-Burk plot, its secondary re-plots and Dixon plot
T1 construct: purchased Sigma Aldrich (Steinheim, Germany)
Protocol: (§1) The test compounds were prepared fresh immediately before each experiment. Test compounds were added to 150 µl […] phosphate buffer (pH 8.0), 200 µl methanol, and 20 µl of the test enzymes and were incubated at 25°C for 15 min. A sample with an equal amount of solvent (ethanol) in place of the test compounds served as a negative control. 10 μl of DTNB reagent was added to the samples, and the reaction was initiated by adding 10 μl acetylthiocholine (ATCh) or butyrylthiocholine (BTCh) for the estimation of AChE and BChE, respectively. All the experiments were conducted in triplicate. […] The rate of enzyme inhibition was calculated as the change in optical density per minute (OD/min).
(§2) The enzyme inhibition activities of serially diluted concentrations of test compounds were measured, and the IC50 values were calculated using EZ-Fit Enzyme Kinetics Program.
(§3) The dissociation constant (Ki) values, which signified the dissociation of the enzyme-inhibitor complex into free enzyme and inhibitor, were also determined. […] These velocities were obtained over a range of substrate concentrations between 0.1 and 0.4 mM for ATCh and 0.05 and 0.2 mM for BTCh. The assay conditions for measurement of the residual activities of all inhibitors were identical to the aforementioned spectrophotometric assay procedure, except that the fixed concentrations of inhibiting compounds were used in the assay medium. Assays were conducted in triplicate at each concentration of the inhibitor.
(§4) The inhibition patterns of tested coumarins were determined by the graphical views of Dixon plots, Lineweaver-Burk plots, and their secondary re-plots. […] The linear regression analysis values, correlation coefficient, slope, intercept, and standard errors were obtained using the same software. Two different methods were applied to monitor the effects of the test sample on both Michaelis constant (K m ) and maximum velocity (V max) values. […] The secondary re-plots of the Lineweaver-Burk were also constructed in two ways; firstly, the reciprocal of apparent V max (1/V maxapp ) values were determined at each intersection point for every inhibitor concentration line on the y-axis of the Lineweaver-Burk plot and then re-plotted against different concentrations of the respective inhibitor. […] The secondary re-plot of the Dixon plot was constructed as the slope of each line of substrate concentration in the original Dixon plot against the reciprocals of substrate concentrations.

[2] = biological target: T2, BChE (Homo sapiens, UniProt P06276); test: biochemical; format: biochemical; settings: for Ki: mean ± SEM, mean of four values from Lineweaver-Burk plot, its secondary re-plots and Dixon plot
T2 construct: purchased Sigma Aldrich (Steinheim, Germany)
Protocol: as §1, §2, §3, §4

T1 sequence (P22303 32-614): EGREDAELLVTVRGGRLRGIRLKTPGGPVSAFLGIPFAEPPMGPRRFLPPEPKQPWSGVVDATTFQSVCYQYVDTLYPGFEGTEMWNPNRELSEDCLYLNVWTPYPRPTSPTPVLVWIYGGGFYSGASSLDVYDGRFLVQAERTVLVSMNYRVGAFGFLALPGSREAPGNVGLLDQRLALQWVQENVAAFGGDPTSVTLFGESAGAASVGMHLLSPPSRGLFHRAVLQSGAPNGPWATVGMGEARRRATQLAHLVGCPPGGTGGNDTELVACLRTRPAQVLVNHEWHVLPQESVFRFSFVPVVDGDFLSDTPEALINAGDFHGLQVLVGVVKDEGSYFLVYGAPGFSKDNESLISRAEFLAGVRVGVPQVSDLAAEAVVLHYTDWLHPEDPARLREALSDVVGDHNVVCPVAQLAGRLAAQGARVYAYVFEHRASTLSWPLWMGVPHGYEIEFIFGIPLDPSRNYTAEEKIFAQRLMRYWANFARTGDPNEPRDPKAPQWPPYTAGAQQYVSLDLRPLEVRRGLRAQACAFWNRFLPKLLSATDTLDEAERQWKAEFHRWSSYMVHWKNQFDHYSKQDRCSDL
T2 sequence (P06276 29-602): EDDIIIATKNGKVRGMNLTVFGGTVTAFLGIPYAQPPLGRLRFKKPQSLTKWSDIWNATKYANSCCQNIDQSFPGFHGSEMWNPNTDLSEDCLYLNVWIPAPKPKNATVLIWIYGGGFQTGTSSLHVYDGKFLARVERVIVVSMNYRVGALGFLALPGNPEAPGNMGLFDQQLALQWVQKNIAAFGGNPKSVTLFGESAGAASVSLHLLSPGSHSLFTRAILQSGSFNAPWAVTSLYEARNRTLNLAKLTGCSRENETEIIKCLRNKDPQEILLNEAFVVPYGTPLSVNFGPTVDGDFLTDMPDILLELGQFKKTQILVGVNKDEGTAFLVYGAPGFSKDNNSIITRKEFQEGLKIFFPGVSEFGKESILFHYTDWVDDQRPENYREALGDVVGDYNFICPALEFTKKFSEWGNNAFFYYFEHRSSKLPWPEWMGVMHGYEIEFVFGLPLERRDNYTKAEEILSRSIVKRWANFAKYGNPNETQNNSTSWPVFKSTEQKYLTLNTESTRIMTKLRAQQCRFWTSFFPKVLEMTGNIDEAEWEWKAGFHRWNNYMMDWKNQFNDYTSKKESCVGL

SMILES | Type of inhibition of AChE (in words) [1] | IC50 [1] | Ki [1] | Type of inhibition of BChE (in words) [2] | Ki [2] | AChE Type of inhibition ([1]; table abbreviations) | IC50 ([2]; mean ± SEM of 3 experiments) | BChE Type of inhibition ([2]; table abbreviations) | AChE IC50 [1] | AChE IC50 ([1]; listed as 2′-O-ethylmurrangatin (1)) | BChE IC50 ([2]; mean ± SEM of 3 experiments)
COc1ccc2ccc(=O)oc2c1C(OC(=O)CC(C)C)C(=O)C(C)C (centres unmarked) [Paniculatin (3), paniculatin] | mixed-type inhibitor | 31.6 ± 0.03 µM | 43 ± 0.65 µM | mixed-type inhibitor | 22 ± 0.6 µM |  |  |  |  |  | 
COc1ccc2ccc(=O)oc2c1C(O)C(=O)C(C)C (centres unmarked) [Murranganone (2), murranganone] | pure non-competitive inhibition | 79.1 ± 2.02 µM | 50 ± 0.58 µM | mixed-type inhibition | 22 ± 0.44 µM | NC ^d | 74.3 ± 0.75 µM | LM ^e |  |  | 
C=C(C)[C@@H](OCC)[C@@H](O)c1c(OC)ccc2ccc(=O)oc12 [2′-O-Ethylmurrangatin (1), 2′-O-ethylmurrangatin] |  |  |  |  |  |  | 843 ± 13 µM |  | No activity upto 1 mM | not active at 1 mM conc; also recorded: did not show any inhibition | very weak activity
